Experimental data taken from US12338220B2, “Antiviral pyrazolopiridinone compounds” (Novartis AG, priority 2019, dated 2025).
Where two headings read alike, the source gives them in different places.

Key:
[1] = system: KOS strain of HSV-1 virus; assay: HSV-1 qPCR assay; details: Human alphaherpesvirus 1, 24 h
CMV = assay: microbe, parasite or virus in culture; format: cell-based
CMV-polymerase = CMV-polymerase (Human cytomegalovirus (strain AD169) (HHV-5) (Human herpesvirus 5), UniProt P08546); assay: biochemical
VZV Ellen strain = assay: VZV qPCR assay; details: Human alphaherpesvirus 3, MRC5, 48 h, read-out: Cellular activity against VZV (EC50)
HSV-polymerase = HSV-polymerase (Human herpesvirus 1 (strain 17) (HHV-1) (Human herpes simplex virus 1), UniProt P04293); assay: biochemical
[2] = system: EBV (SNU-719 cells latently infected); assay: EBV qPCR assay; details: human gammaherpesvirus 4, 72 h, read-out: Cellular activity against EBV (EC50)
[3] = system: HCMV-Rluc virus (AD169 pp28-hRluc rUL131); assay: CMV Luciferase Assay of Compounds 243-262 in ARPE-19 cells; format: cell-based; details: Human betaherpesvirus 5, AD169, ARPE-19, 72 h, read-out: CMV-Luc Cellular EC50 in ARPE-19
Procedure: CMV Luciferase Assay of Compounds 243-262.
Compounds 243-262 were tested in a luminescence assay as follows.
ARPE-19 cells were maintained in growth medium (DMEM/F12 Glutamax+10 fetal bovine serum (FBS)+PenStrep) and, before reaching full confluence, were transferred to a centrifuge tube and spun for 5 minutes at 1000 rpm. The cells were resuspended in assay medium (DMEM/F12 Glutamax+2% FBS+PenStrep) and counted. Cell density was adjusted to one million cells per milliliter and infected with HCMV-Rluc virus (AD169 pp28-hRluc rUL131; MOI 0.6) in a 50 ml conical tube for 2 hours while shaking. After dilution of the infectious suspension ten-fold (to 100,000 cells per milliliter), 8000 cells are directly plated in 384-well plates pre-spotted with the compound to be tested. The cells were incubated for 72 hours at 37 degrees Celsius. Cells were then placed at room temperature and allowed to equilibrate for 20 minutes before addition of the Renilla-Glo (Promega) reagent. After a 10-minute incubation at room temperature, luminescence was measured on a microplate reader.

[4] = read-out: Cellular activity against HSV-1 (EC50), NN-NHDF cells, MOI 0.01, 24 hrs, qPCR
[5] = Human betaherpesvirus 5, 72 h, read-out: CMV-Luc Cellular EC50, NN-NHDF cells, MOI 1, 72 hrs
[6] = Human betaherpesvirus 5, read-out: Cellular activity against CMV (EC50), Table 18
[7] = read-out: CMV-polymerase Biochemical IC50
[8] = read-out: Cellular activity against HSV-1 (EC50)

| Structure (SMILES) | EC50 [1, 4] | EC50 (CMV; [5]) | EC50 (CMV; [6]) | IC50 (CMV-polymerase; [7]) | EC50 (VZV Ellen strain) | EC50 [3] | other results |
| --- | --- | --- | --- | --- | --- | --- | --- |
| Cn1nc(C(=O)NCc2ccc(Cl)cc2)c2c1C(=O)N(CC1(S(=O)(=O)C(C)(C)C(O)CN)CC1)CC2 (single isomer, unassigned) [Example 200, (R)- or (S)-6-((1-((4-Amino-3-hydroxy-2-methylbutan-2-yl)sulfonyl)cyclopropyl)methyl)-N-(4-chlorobenzyl)-1-methyl-7-oxo-4,5,6,7-tetrahydro-1H-pyrazolo[3,4-c]pyridine-3-carboxamide] | 16 nM | 5 nM | 5 nM |  |  |  |  |
| Cn1nc(C(=O)NCc2ccc(C#N)cc2)c2c1C(=O)N(CC1(S(=O)(=O)C3CC3)CC1)CC2 [Example 3, N-(4-cyanobenzyl)-6-((1-(cyclopropylsulfonyl)cyclopropyl)methyl)-1-methyl-7-oxo-4,5,6,7-tetrahydro-1H-pyrazolo[3,4-c]pyridine-3-carboxamide] |  | 39 nM | 39 nM | 2 nM | 11 nM |  | EC50 [1, 8]: 33 nM |
| Cn1nc(C(=O)NCc2ccc(Cl)cc2)c2c1C(=O)N(CC1(S(=O)(=O)C3CC3)CC1)CC2 [Example 4, N-(4-Chlorobenzyl)-6-((1-(cyclopropylsulfonyl)cyclopropyl)methyl)-1-methyl-7-oxo-4,5,6,7-tetrahydro-1H-pyrazolo[3,4-c]pyridine-3-carboxamide] | 64 nM | 23 nM | 23 nM | 2 nM | 8 nM |  |  |
| Cn1nc(C(=O)NCc2ccc(C#N)cc2)c2c1C(=O)N(CC1(S(=O)(=O)C(C)(C)COCCN)CC1)CC2 [Example 92, 6-((1-((1-(2-Aminoethoxy)-2-methylpropan-2-yl)sulfonyl)cyclopropyl)methyl)-N-(4-cyanobenzyl)-1-methyl-7-oxo-4,5,6,7-tetrahydro-1H-pyrazolo[3,4-c]pyridine-3-carboxamide] | 30 nM | 12 nM | 12 nM | 1 nM |  |  | IC50 (HSV-polymerase): 30 nM |
| Cn1nc(C(=O)NCc2ccc(Cl)cc2)c2c1C(=O)N(CC1(S(=O)(=O)C(C)(CO)CO)CC1)CC2 [Example 175, N-(4-chlorobenzyl)-6-((1-((1,3-dihydroxy-2-methylpropan-2-yl)sulfonyl)cyclopropyl)methyl)-1-methyl-7-oxo-4,5,6,7-tetrahydro-1H-pyrazolo[3,4-c]pyridine-3-carboxamide] | 58 nM | 26 nM | 26 nM |  | 34 nM |  | IC50 (CMV-polymerase; CMV-polymerase Biochemical IC50): 3 nM; EC50 [2]: 8 nM |
| Cn1nc(C(=O)NCc2ccc(C#N)cc2)c2c1C(=O)N(CC1(S(=O)(=O)C(C)(C)[C@H](O)CO)CC1)CC2 [Example 193, (R)-N-(4-Cyanobenzyl)-6-((1-((3,4-dihydroxy-2-methylbutan-2-yl)sulfonyl)cyclopropyl)methyl)-1-methyl-7-oxo-4,5,6,7-tetrahydro-1H-pyrazolo[3,4-c]pyridine-3-carboxamide] | 58 nM |  | 26 nM | 1 nM | 34 nM |  | EC50 [2]: 8 nM |
| Cn1nc(C(=O)NCc2ccc(C#N)cc2)c2c1C(=O)N(CC1(S(=O)(=O)C(C)(C)[C@H](O)CN)CC1)CC2 [Example 198, (R)-6-((1-((4-amino-3-hydroxy-2-methylbutan-2-yl)sulfonyl)cyclopropyl)methyl)-N-(4-cyanobenzyl)-1-methyl-7-oxo-4,5,6,7-tetrahydro-1H-pyrazolo[3,4-c]pyridine-3-carboxamide] |  | 18 nM | 22 nM |  | 39 nM |  | EC50 [2]: 4 nM; EC50 [1, 8]: 50 nM |
| N#Cc1ccc(CNC(=O)c2nn(CCO)c3c2CCN(CC2(S(=O)(=O)C4CC4)CC2)C3=O)cc1 [Example 216, N-(4-cyanobenzyl)-6-((1-(cyclopropylsulfonyl)cyclopropyl)methyl)-1-(2-hydroxyethyl)-7-oxo-4,5,6,7-tetrahydro-1H-pyrazolo[3,4-c]pyridine-3-carboxamide] |  | 67 nM | 67 nM | 2 nM | 109 nM |  | EC50 [2]: 28 nM; EC50 [1, 8]: 112 nM |
| CC1(S(=O)(=O)C2(CN3CCc4c(C(=O)NCc5ccc(C#N)cc5)nn(CCO)c4C3=O)CC2)CC1 [Example 217, N-(4-Cyanobenzyl)-1-(2-hydroxyethyl)-6-((1-((1-methylcyclopropyl)sulfonyl)cyclopropyl)methyl)-7-oxo-4,5,6,7-tetrahydro-1H-pyrazolo[3,4-c]pyridine-3-carboxamide] | 36 nM | 29 nM | 29 nM | 1 nM |  |  |  |
| CC(C)(CO)S(=O)(=O)C1(CN2CCc3c(C(=O)NCc4ccc(Cl)cc4)nn(CCO)c3C2=O)CC1 [Example 221, N-(4-chlorobenzyl)-6-((1-((1-hydroxy-2-methylpropan-2-yl)sulfonyl)cyclopropyl)methyl)-1-(2-hydroxyethyl)-7-oxo-4,5,6,7-tetrahydro-1H-pyrazolo[3,4-c]pyridine-3-carboxamide] | 10 nM | 17 nM | 17 nM | 1 nM |  |  |  |
| Cn1nc(C(=O)NCc2ccc(C#N)cc2)c2c1C(=O)N(CC1(S(=O)(=O)N3C[C@H](O)[C@@H](O)C3)CC1)CC2 [Example 255, N-(4-cyanobenzyl)-6-((1-(((3S,4S)-3,4-dihydroxypyrrolidin-1-yl)sulfonyl)cyclopropyl)methyl)-1-methyl-7-oxo-4,5,6,7-tetrahydro-1H-pyrazolo[3,4-c]pyridine-3-carboxamide] |  |  |  |  |  | 313 nM |  |
| Cn1nc(C(=O)NCc2ccc(C#N)cc2)c2c1C(=O)N(CC1(S(=O)(=O)NC3(c4cccnn4)CC3)CC1)CC2 [Example 256, N-(4-cyanobenzyl)-1-methyl-7-oxo-6-((1-(N-(1-(pyridazin-3-yl)cyclopropyl)sulfamoyl)cyclopropyl)methyl)-4,5,6,7-tetrahydro-1H-pyrazolo[3,4-c]pyridine-3-carboxamide] |  |  |  |  |  | 10000 nM |  |
| Cn1nc(C(=O)NCc2ccc(C#N)cc2)c2c1C(=O)N(CC1(S(=O)(=O)NC(C)(CO)CO)CC1)CC2 [Example 257, N-(4-cyanobenzyl)-6-((1-(N-(1,3-dihydroxy-2-methylpropan-2-yl)sulfamoyl)cyclopropyl)methyl)-1-methyl-7-oxo-4,5,6,7-tetrahydro-1H-pyrazolo[3,4-c]pyridine-3-carboxamide] |  |  |  |  |  | 358 nM |  |
| Cn1nc(C(=O)NCc2ccc(C#N)cc2)c2c1C(=O)N(CC1(S(=O)(=O)NCc3ncccn3)CC1)CC2 [Example 258, N-(4-cyanobenzyl)-1-methyl-7-oxo-6-((1-(N-(pyrimidin-2-ylmethyl)sulfamoyl)cyclopropyl)methyl)-4,5,6,7-tetrahydro-1H-pyrazolo[3,4-c]pyridine-3-carboxamide] |  |  |  |  |  | 688 nM |  |
| CC(NS(=O)(=O)C1(CN2CCc3c(C(=O)NCc4ccc(C#N)cc4)nn(C)c3C2=O)CC1)c1cnccn1 (centres unmarked) [Example 259, N-(4-cyanobenzyl)-1-methyl-7-oxo-6-((1-(N-(1-(pyrazin-2-yl)ethyl)sulfamoyl)cyclopropyl)methyl)-4,5,6,7-tetrahydro-1H-pyrazolo[3,4-c]pyridine-3-carboxamide] |  |  |  |  |  | 714 nM |  |
| Cn1nc(C(=O)NCc2ccc(C#N)cc2)c2c1C(=O)N(CC1(S(=O)(=O)NCc3cnccn3)CC1)CC2 [Example 260, N-(4-cyanobenzyl)-1-methyl-7-oxo-6-((1-(N-(pyrazin-2-ylmethyl)sulfamoyl)cyclopropyl)methyl)-4,5,6,7-tetrahydro-1H-pyrazolo[3,4-c]pyridine-3-carboxamide] |  |  |  |  |  | 278 nM |  |
| Cn1nc(C(=O)NCc2ccc(C#N)cc2)c2c1C(=O)N(CC1(S(=O)(=O)NC(CO)(CO)CO)CC1)CC2 [Example 261, N-(4-cyanobenzyl)-6-((1-(N-(1,3-dihydroxy-2-(hydroxymethyl)propan-2-yl)sulfamoyl)cyclopropyl)methyl)-1-methyl-7-oxo-4,5,6,7-tetrahydro-1H-pyrazolo[3,4-c]pyridine-3-carboxamide] |  |  |  |  |  | 2580 nM |  |
| Cn1nc(C(=O)NCc2ccc(C#N)cc2)c2c1C(=O)N(CC1(S(N)(=O)=O)CC1)CC2 [Example 262, N-(4-cyanobenzyl)-1-methyl-7-oxo-6-((1-sulfamoylcyclopropyl)methyl)-4,5,6,7-tetrahydro-1H-pyrazolo[3,4-c]pyridine-3-carboxamide] |  |  |  |  |  | 252 nM |  |
